From ChEMBL document CHEMBL1157374, “Lack of an effect of antibiotic treatment on prolonged detection of chlamydial DNA in murine genital tract infection” (2007) come the findings set out here.

The structures appear in SMILES notation. Calls of active or inactive are those of the source. The calls are words filed in the database; no cut-off is given here.

Assay [1] deals with Chlamydia trachomatis. Put plainly: Effect on chlamydial plasmid DNA of Chlamydia trachomatis Nigg infected in BALB/c mouse genital tract infection model at 3 mg/ml, ip administered on days 10 to 24 days postinfection by nested PCR. In kind it is functional, organism-based.
Assay [2] has as its system Chlamydia trachomatis. The experiment in a line: Effect on chlamydial plasmid DNA of Chlamydia trachomatis Nigg infected in BALB/c mouse genital tract infection model at 3 mg/ml, ip administered on days 42 to 56 days postinfection by nested PCR. In kind it is functional, organism-based.
Assay [3] has as its system Chlamydia trachomatis. Put plainly: Antimicrobial activity against Chlamydia trachomatis Nigg infected in BALB/c mouse genital tract infection model assessed as severe oviduct dilation at 3 mg/ml, ip administered on days 10 to 24 days postinfection. In kind it is functional.
Assay [4] concerns Chlamydia trachomatis. The experiment in a line: Antimicrobial activity against Chlamydia trachomatis Nigg infected in BALB/c mouse genital tract infection model assessed as severe oviduct dilation at 3 mg/ml, ip administered on days 42 to 56 days postinfection. In kind it is functional.
Assay [5] concerns Chlamydia trachomatis. Put plainly: Antimicrobial activity against Chlamydia trachomatis Nigg infected in BALB/c mouse genital tract infection model assessed as recovery of inclusion forming units from cervicovaginal swabs at 3 mg/ml, ip administered on days 42 to 56 days postinfection. In kind it is functional, organism-based.
The test system of assay [6] is Chlamydia trachomatis. Put plainly: Antimicrobial activity against Chlamydia trachomatis Nigg infected in BALB/c mouse genital tract infection model assessed as recovery of inclusion forming units from cervicovaginal swabs at 3 mg/ml, ip administered on days 10 to 24 days postinfection. In kind it is functional, organism-based.

In the case of `C[C@H]1c2cccc(O)c2C(=O)C2=C(O)[C@]3(O)C(=O)C(C(N)=O)=C(O)[C@@H](N(C)C)[C@@H]3[C@@H](O)[C@@H]21.O` [DOXYCYCLINE], the result in the assay with Chlamydia trachomatis [1] and in the assay with Chlamydia trachomatis [2] was inactive. The Activity in the assay with Chlamydia trachomatis [3] was 30%; in the assay on Chlamydia trachomatis [4] it was 80%. Besides, the outcome with Chlamydia trachomatis [5] and with Chlamydia trachomatis [6] was Active.
